# Measured values reported in PubChem BioAssay (NCI).
#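 The concentration for 50% growth inhibition is given as GI50. TGI denotes the concentration required for complete inhibition of growth.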
# How the values were obtained:
# Test in all cases: NCI tumour cell line growth inhibition, 384-well format
# MDA-MB-231 breast = system: MDA-MB-231 breast
# CCRF-CEM leukemia = system: CCRF-CEM leukemia
# EKVX NSCLC = system: EKVX NSCLC
# PC-3 prostate = system: PC-3 prostate
# SK-MEL-28 melanoma = system: SK-MEL-28 melanoma
# KM12 colon = system: KM12 colon
# HT29 colon = system: HT29 colon
# RPMI-8226 leukemia = system: RPMI-8226 leukemia
# SK-MEL-2 melanoma = system: SK-MEL-2 melanoma
# K-562 leukemia = system: K-562 leukemia
# SW-620 colon = system: SW-620 colon
# UACC-257 melanoma = system: UACC-257 melanoma
# SR leukemia = system: SR leukemia
smiles,measurement,setting,value
CC[C@H](NC(=O)[C@H](CS(=O)(=O)CC1CC1)N[C@@H](c1ccc(F)cc1)C(F)(F)F)C(=O)C(=O)NC1CC1,GI50,MDA-MB-231 breast,> 100 µM
same,TGI,MDA-MB-231 breast,> 100 µM
same,GI50,CCRF-CEM leukemia,60.9 µM
same,TGI,CCRF-CEM leukemia,> 100 µM
same,GI50,EKVX NSCLC,98.7 µM
same,TGI,EKVX NSCLC,> 100 µM
same,GI50,PC-3 prostate,> 100 µM
same,TGI,PC-3 prostate,> 100 µM
same,GI50,SK-MEL-28 melanoma,> 100 µM
same,TGI,SK-MEL-28 melanoma,> 100 µM
same,GI50,KM12 colon,> 100 µM
same,TGI,KM12 colon,> 100 µM
same,GI50,HT29 colon,> 100 µM
same,TGI,HT29 colon,> 100 µM
same,GI50,RPMI-8226 leukemia,77.2 µM
same,TGI,RPMI-8226 leukemia,> 100 µM
same,GI50,SK-MEL-2 melanoma,> 100 µM
same,TGI,SK-MEL-2 melanoma,> 100 µM
same,GI50,K-562 leukemia,> 93.1 µM
same,TGI,K-562 leukemia,> 100 µM
same,GI50,SW-620 colon,> 100 µM
same,TGI,SW-620 colon,> 100 µM
same,GI50,UACC-257 melanoma,> 100 µM
same,TGI,UACC-257 melanoma,> 100 µM
same,GI50,SR leukemia,19.3 µM
same,TGI,SR leukemia,74.5 µM
